Assay results reported in patent publication US11800869B2, “Use of 6-oxo-1,4,5,6-tetrahydropyridazine-3-carboxylic acid, 1-methyl 6-oxo-1,4,5,6-tetrahydropyridazine-3-carboxylic acid and 1-alkyl-6-oxo-1,4,5,6-tetrahydropyridazine-3-carboxylic acid for improving growth performance in plants” (Advanced Crop Chem LLP, priority 2020, dated 2023).
Where “and” joins values, the source holds several entries; their conditions need not be identical. Equal entries are not always repeated.

System: Soybean seeds (Var. Viking)
Assay: Soybean seed treatment, germination paper, shoot fresh weight (Example 10)
Assay type: in vivo
Conditions: seeds imbibed three minutes in 0.01 mM; germination paper 75-85° F; two table lines, Control 98.3 and 106.2
Description: Soybean seeds were treated with 6-oxo-1,4,5,6 tetrahydropyridazine-3-carboxylic acid and the weights of the shoots were determined as shown in Table 2. Early seedling emergence is important for early establishment of a vigorous and productive crop. Soybean seeds (Var. Viking) were treated by imbibing them for three minutes with a solution of 0.01 mM 6-oxo-1,4,5,6 tetrahydropyridazine-3-carboxylic acid in an aqueous solution also containing soft soap and glycerol at pH 5.7-5.8. The control seeds were imbibed in aqueous solution containing only the soft soap and glycerol at pH 5.7-5.8. The seeds were placed on moist germination paper and allowed to germinate at 75-85° F. The fresh weights were taken to assess the shoot development.

O=C1CCC(C(=O)O)=NN1 [THP, 6-oxo-1,4,5,6 tetrahydropyridazine-3-carboxylic acid]
Shoots, Fresh wt.: 114.3 mg and 128.6 mg
